# Tested on: male ZDF/GMI fa/fa rats
# Assay: Experimental animal protocol: blood glucose, triglycerides and NEFAs in ZDF rats
# Type: in vivo
# Conditions: 150 mg/kg twice a day oral gavage, after 2 weeks, non-fasting, mean ± SEM
# Protocol: Experimental Animal Protocol
# Age and weight matched male ZDF/GMI fa/fa rats (Genetic Models) were housed at 72 degF. and 50% relative humidity with a 12 hr light and dark cycle. Starting at 8 weeks of age the animals were dosed twice a day by oral gavage with 150 mg/kg of example 2. After 2 weeks the animals were anesthetized with isofluorane, blood drawn by cardiac puncture, and non-fasting measurements of glucose, triglycerides, and non-esterified free fatty acids (NEFAS) were obtained. The data were calculated as the mean and standard error (SEM) from experiments performed on ten animals per treatment group. Two-tailed tests were performed to calculate P values using Excel on a personal computer. This research complied with the principles of laboratory animal care (NIH publication No. […], revised 1985) and company policy on the care and use of animals and related codes of practice.
smiles,measurement,setting,value
"CCCc1nnc(C[C@H](Nc2ccccc2C(=O)c2ccccc2)c2ccc(OCCc3nc(-c4ccccc4)oc3C)cc2)o1 [Example 1, (S)-{{2-[1-(2-Benzoylphenyl)amino]-2-{4-[2-(5-methyl-2-phenyloxazol-4-yl)ethoxy]phenyl}ethyl}}-5-propyl-1,3,4-oxadiazole]",Free Fatty Acids,control 1.48 ± 0.09,1.14 ± 0.06 mEq/L
same,Glucose,control 313 ± 62,201 ± 13 mg/dL
same,Triglycerides,control 1507 ± 143,734 ± 102 mg/dL

# Source: patent US6506781B1, “Oxazole PPAR antagonist” (SmithKline Beecham Corporation, priority 1999, dated 2003)
